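96-well plates; 48 h exposure; 5 concentrations. Endpoints by linear interpolation between flanking doses. Not reached: highest tested concentration assigned. GI50 is the concentration that inhibits growth by half.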 Active and inactive are the calls of the source. No stated cut-off is given here; in the data, active = GI50 up to about 1.1 µM and inactive = higher.
Assays:
Assay in all cases: NCI anticancer screen, dose series, 48 h
SNB-19 = tested on: SNB-19
KM12 = tested on: KM12
SK-OV-3 = tested on: SK-OV-3
M19-MEL = tested on: M19-MEL
SF-295 = tested on: SF-295
SK-MEL-28 = tested on: SK-MEL-28
SF-539 = tested on: SF-539
KM-20L2 = tested on: KM-20L2
DMS-273 = tested on: DMS-273
MOLT-4 = tested on: MOLT-4
CCRF-CEM = tested on: CCRF-CEM
LXFL 529 = tested on: LXFL 529
U-251 = tested on: U-251
HCT-15 = tested on: HCT-15
A498 = tested on: A498
OVCAR-5 = tested on: OVCAR-5
UACC-257 = tested on: UACC-257
SK-MEL-5 = tested on: SK-MEL-5
CAKI-1 = tested on: CAKI-1
NCI-H226 = tested on: NCI-H226
NCI-H522 = tested on: NCI-H522
SF-268 = tested on: SF-268
A549 = tested on: A549
OVCAR-8 = tested on: OVCAR-8
SNB-75 = tested on: SNB-75
NCI-H23 = tested on: NCI-H23
SW-620 = tested on: SW-620
HL-60 = tested on: HL-60
SK-MEL-2 = tested on: SK-MEL-2
UACC-62 = tested on: UACC-62
LOX IMVI = tested on: LOX IMVI
UO-31 = tested on: UO-31
786-0 = tested on: 786-0
EKVX = tested on: EKVX
TK-10 = tested on: TK-10
NCI-H460 = tested on: NCI-H460
HT-29 = tested on: HT-29
OVCAR-3 = tested on: OVCAR-3
OVCAR-4 = tested on: OVCAR-4
M14 = tested on: M14
HOP-92 = tested on: HOP-92
DLD-1 = tested on: DLD-1
HOP-18 = tested on: HOP-18
XF498 = tested on: XF498
RPMI-8226 = tested on: RPMI-8226
RXF 393 = tested on: RXF 393
K562 = tested on: K562
Malme-3M = tested on: Malme-3M
ACHN = tested on: ACHN
HCC 2998 = tested on: HCC 2998
SN12C = tested on: SN12C
COLO 205 = tested on: COLO 205
IGROV-1 = tested on: IGROV-1
HOP-62 = tested on: HOP-62
SR = tested on: SR
SNB-78 = tested on: SNB-78
HCT-116 = tested on: HCT-116
DMS-114 = tested on: DMS-114

Measured: GI50

CN(CC(=O)O)S(=O)(=O)c1ccc(Cl)cc1
inactive: SNB-19 > 100 µM | KM12 > 100 µM | SK-OV-3 > 100 µM | M19-MEL > 100 µM | SF-295 > 100 µM | SK-MEL-28 > 100 µM | SF-539 > 100 µM | KM-20L2 > 100 µM | DMS-273 > 100 µM | MOLT-4 > 100 µM | CCRF-CEM > 100 µM | LXFL 529 > 100 µM | U-251 > 100 µM | A498 > 100 µM | OVCAR-5 > 100 µM | UACC-257 > 100 µM | SK-MEL-5 > 100 µM | CAKI-1 > 100 µM | NCI-H226 > 100 µM | NCI-H522 > 100 µM | SF-268 > 100 µM | A549 > 100 µM | OVCAR-8 > 100 µM | SNB-75 > 100 µM | NCI-H23 > 100 µM | SW-620 > 100 µM | HL-60 > 100 µM | SK-MEL-2 > 100 µM | UACC-62 > 100 µM | LOX IMVI > 100 µM | UO-31 > 100 µM | 786-0 > 100 µM | EKVX > 100 µM | TK-10 > 100 µM | NCI-H460 > 100 µM | HT-29 > 100 µM | OVCAR-3 > 100 µM | OVCAR-4 > 100 µM | M14 > 100 µM | HOP-92 > 100 µM | DLD-1 > 100 µM | HOP-18 > 100 µM | XF498 > 100 µM | RPMI-8226 > 100 µM | RXF 393 > 100 µM | K562 > 100 µM | Malme-3M > 100 µM | ACHN > 100 µM | HCC 2998 > 100 µM | SN12C > 100 µM | COLO 205 > 100 µM | IGROV-1 > 100 µM
> 100 µM: HCT-15

CNC(=S)N(C)C(=S)Nn1c(=O)c(C)nn(C)c1=S
inactive: SNB-19 > 100 µM | KM12 > 100 µM | M19-MEL > 100 µM | SF-295 > 100 µM | SK-MEL-28 > 100 µM | SF-539 > 100 µM | KM-20L2 > 100 µM | DMS-273 > 100 µM | HOP-62 > 100 µM | MOLT-4 > 100 µM | CCRF-CEM > 100 µM | LXFL 529 > 100 µM | U-251 > 100 µM | A498 > 100 µM | OVCAR-5 > 100 µM | UACC-257 > 100 µM | SK-MEL-5 > 100 µM | NCI-H226 > 100 µM | SR > 100 µM | NCI-H522 > 100 µM | SNB-78 > 100 µM | SF-268 > 100 µM | A549 > 100 µM | OVCAR-8 > 100 µM | SNB-75 > 100 µM | HCT-116 > 100 µM | NCI-H23 > 100 µM | SW-620 > 100 µM | HL-60 > 100 µM | DMS-114 > 100 µM | UACC-62 > 100 µM | LOX IMVI > 100 µM | 786-0 > 100 µM | EKVX > 100 µM | NCI-H460 > 100 µM | HT-29 > 100 µM | OVCAR-4 > 100 µM | M14 > 100 µM | HOP-92 > 100 µM | DLD-1 > 100 µM | HOP-18 > 100 µM | RPMI-8226 > 100 µM | RXF 393 > 100 µM | K562 > 100 µM | ACHN > 100 µM | SN12C > 100 µM | COLO 205 > 100 µM | IGROV-1 > 100 µM
> 100 µM: HCT-15

Reference: ChEMBL document CHEMBL1201862, “PubChem BioAssay data set” (2004)
